The source of these data is patent publication US10287255B2, “Compounds as histone deacetylase 6 inhibitors and pharmaceutical compositions comprising the same” (CHONG KUN DANG PHARMACEUTICAL CORP., priority 2014, dated 2019).

One test concerns the target T1, human recombinant HDAC1 (Homo sapiens, UniProt Q13547).
T1 construct: purchased Enzo Life Science BML-SE456
Put plainly: HDAC1 enzyme activity inhibition assay (in vitro, fluorimetric). Format: biochemical. The settings on record: human recombinant HDAC1, fluorimetric kit, 30° C. 60 minutes. The method in brief:
(§1)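 Human recombinant enzyme (0.3 μg for HDAC1) reacted with 10 μM Fluor de Lys-SIRT1 substrate and 5-fold compound dilutions at 30 °C for 60 min, then developer for 30 min. Fluorescence read at Ex 360/Em 460; IC50 calculated. HDAC6 run by the same protocol.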

Another test concerns the target T2, human recombinant HDAC6 (Homo sapiens, UniProt Q9UBN7).
T2 construct: purchased Calbiochem 382180
T2 sequence (Q9UBN7 1-1215): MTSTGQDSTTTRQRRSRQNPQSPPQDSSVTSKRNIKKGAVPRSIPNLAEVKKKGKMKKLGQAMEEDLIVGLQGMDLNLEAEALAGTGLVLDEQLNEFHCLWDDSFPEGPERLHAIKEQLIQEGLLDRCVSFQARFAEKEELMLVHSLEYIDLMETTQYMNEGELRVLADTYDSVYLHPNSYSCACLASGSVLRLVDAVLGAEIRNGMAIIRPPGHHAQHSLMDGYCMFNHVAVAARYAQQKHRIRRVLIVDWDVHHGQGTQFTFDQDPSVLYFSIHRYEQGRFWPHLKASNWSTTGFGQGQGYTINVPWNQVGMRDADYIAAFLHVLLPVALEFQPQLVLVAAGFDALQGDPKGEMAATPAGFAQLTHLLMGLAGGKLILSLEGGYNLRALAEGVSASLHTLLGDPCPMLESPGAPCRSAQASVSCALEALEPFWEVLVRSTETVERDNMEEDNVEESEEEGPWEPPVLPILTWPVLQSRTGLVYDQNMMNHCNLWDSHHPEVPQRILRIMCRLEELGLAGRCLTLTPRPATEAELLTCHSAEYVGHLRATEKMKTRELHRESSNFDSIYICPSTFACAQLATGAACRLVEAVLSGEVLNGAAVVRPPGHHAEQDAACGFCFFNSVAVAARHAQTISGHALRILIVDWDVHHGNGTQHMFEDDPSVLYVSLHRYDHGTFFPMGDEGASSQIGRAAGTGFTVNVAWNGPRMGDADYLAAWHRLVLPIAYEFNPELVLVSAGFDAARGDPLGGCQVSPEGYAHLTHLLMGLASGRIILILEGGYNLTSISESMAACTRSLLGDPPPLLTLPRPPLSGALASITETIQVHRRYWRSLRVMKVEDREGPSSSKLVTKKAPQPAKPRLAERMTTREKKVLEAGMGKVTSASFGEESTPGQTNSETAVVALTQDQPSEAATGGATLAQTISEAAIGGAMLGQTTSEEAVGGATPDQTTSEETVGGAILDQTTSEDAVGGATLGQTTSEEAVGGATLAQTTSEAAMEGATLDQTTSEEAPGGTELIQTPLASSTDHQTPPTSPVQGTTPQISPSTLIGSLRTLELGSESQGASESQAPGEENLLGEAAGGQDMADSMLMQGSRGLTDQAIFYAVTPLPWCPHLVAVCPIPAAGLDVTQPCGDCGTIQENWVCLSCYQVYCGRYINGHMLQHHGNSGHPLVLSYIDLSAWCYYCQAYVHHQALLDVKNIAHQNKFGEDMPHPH
Put plainly: HDAC6 enzyme activity inhibition assay (in vitro, fluorimetric). Format: biochemical. The settings on record: for HDAC6 selectivity (fold): HDAC6 selectivity over HDAC1; for IC50: human recombinant HDAC6, fluorimetric kit, same protocol as HDAC1. The method in brief: as §1

T1 sequence (Q13547 whole entry): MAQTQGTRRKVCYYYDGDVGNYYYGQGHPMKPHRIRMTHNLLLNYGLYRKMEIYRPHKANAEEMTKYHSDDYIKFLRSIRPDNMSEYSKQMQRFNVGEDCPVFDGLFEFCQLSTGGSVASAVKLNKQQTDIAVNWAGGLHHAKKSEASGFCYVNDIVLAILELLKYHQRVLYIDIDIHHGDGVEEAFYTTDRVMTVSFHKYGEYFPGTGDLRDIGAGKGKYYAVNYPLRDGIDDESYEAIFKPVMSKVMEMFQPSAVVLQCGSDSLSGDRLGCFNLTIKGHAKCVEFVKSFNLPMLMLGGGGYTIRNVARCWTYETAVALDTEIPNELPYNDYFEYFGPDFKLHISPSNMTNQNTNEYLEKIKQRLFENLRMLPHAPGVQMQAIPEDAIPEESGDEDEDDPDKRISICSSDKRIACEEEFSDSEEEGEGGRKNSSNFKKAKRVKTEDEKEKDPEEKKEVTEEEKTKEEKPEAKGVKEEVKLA

The IC50 is the concentration that inhibits the measured activity by half. Consider `CC(C)N1CCN(Cc2cccc(C(=O)N3[C@H](C)CN(Cc4ccc(C(=O)NO)cc4)C[C@@H]3C)c2)CC1` [Compound 434, N-hydroxy-4-(((3R,5S)-4-(3-((4-isopropylpiperazin-1-yl)methyl)benzoyl)-3,5-dimethylpiperazin-1-yl)methyl)benzamide], for which the IC50 on human recombinant HDAC1 came out at 3700 nM. In addition, on human recombinant HDAC6, the “HDAC6 selectivity (fold)” value is 61 fold and the IC50 is 60 nM.
Taken in the same sequence, the figures for `Cc1cccc(NC(=S)N2C[C@@H](C)N(Cc3ccc(C(=O)NO)cc3)[C@@H](C)C2)c1` [Compound 189, 4-(((2S,6R)-2,6-dimethyl-4-(m-tolylcarbamothioyl)piperazin-1-yl)methyl)-N-hydroxybenzamide] were 3000 nM, 10 fold and 303 nM.
Turning to `C[C@@H]1CN(Cc2ccc(C(=O)NO)cc2)C[C@H](C)N1C(=O)c1ccc(CN2CC[C@@H](F)C2)cc1` [Compound 460, 4-(((3R,5S)-4-(4-(((R)-3-fluoropyrrolidin-1-yl)methyl)benzoyl)-3,5-dimethylpiperazin-1-yl)methyl)-N-hydroxybenzamide], on human recombinant HDAC1, the IC50 came out at 4400 nM. Also, at human recombinant HDAC6, the “HDAC6 selectivity (fold)” value was 20 fold and the concentration for half-maximal inhibition (IC50) was 219 nM.
Take `CC(C)N1C[C@@H](C)N(Cc2ccc(C(=O)NO)cc2)[C@@H](C)C1` [Compound 273, N-hydroxy-4-(((2S,6R)-4-isopropyl-2,6-dimethylpiperazin-1-yl)methyl)benzamide]: on human recombinant HDAC1, the half-inhibitory concentration (IC50) worked out at 13700 nM. At human recombinant HDAC6, the “HDAC6 selectivity (fold)” value is given as 31 fold and the IC50 stood at 441 nM.
Taken in the same sequence, the figures for `C[C@@H]1CN(Cc2ccc(C(=O)NO)cc2)C[C@H](C)N1Cc1cccc(CN2CCN(CC(F)(F)F)CC2)c1` [Compound 453, 4-(((3R,5S)-3,5-dimethyl-4-(3-((4-(2,2,2-trifluoroethyl)piperazin-1-yl)methyl)benzyl)piperazin-1-yl)methyl)-N-hydroxybenzamide] were 11900 nM, 154 fold and 77 nM.
As to `C[C@@H]1CN(CC2CCC(C(=O)NO)CC2)C[C@H](C)N1Cc1ccccc1` (stereo partly drawn) [Compound 822, 4-(((3R,5S)-4-benzyl-3,5-dimethylpiperazin-1-yl)methyl)-N-hydroxycyclohexane-1-carboxamide], the concentration for half-maximal inhibition (IC50) was more than 10000 nM at human recombinant HDAC1 and 280 nM at human recombinant HDAC6. Besides, the “HDAC6 selectivity (fold)” value at human recombinant HDAC6 is listed as more than 35 fold.
For `C[C@@H]1CN(Cc2ccccc2)C[C@H](C)N1Cc1ccc(C(=O)NO)cn1` [Compound 195, 6-(((2S,6R)-4-benzyl-2,6-dimethylpiperazin-1-yl)methyl)-N-hydroxynicotinamide] the same measures were 22400 nM, 410 nM and 55 fold.
In the case of `C[C@@H]1CN(C(=O)Cc2cccc(-c3ccncc3)c2)C[C@H](C)N1Cc1ccc(C(=O)NO)cc1` [Compound 251, 4-(((2S,6R)-2,6-dimethyl-4-(2-(3-(pyridin-4-yl)phenyl)acetyl)piperazin-1-yl)methyl)-N-hydroxybenzamide], the IC50 was found to be 13700 nM on human recombinant HDAC1 and 242 nM at human recombinant HDAC6. For the same molecule, on human recombinant HDAC6, the “HDAC6 selectivity (fold)” value was 57 fold.
For `C[C@@H]1CN(Cc2ccc(-c3cccs3)cc2)C[C@H](C)N1Cc1ccc(C(=O)NO)cc1` [Compound 302, 4-(((2S,6R)-2,6-dimethyl-4-(4-(thiophen-2-yl)benzyl)piperazin-1-yl)methyl)-N-hydroxybenzamide] the same measures were 3600 nM, 1130 nM and 3 fold.
Taken in the same sequence, the figures for `C[C@@H]1CN(C(=O)c2ccc(CC(=O)NO)cc2)C[C@H](C)N1Cc1ccccc1` [Compound 823, 2-(4-((3R,5S)-4-benzyl-3,5-dimethylpiperazine-1-carbonyl)phenyl)-N-hydroxyacetamide] were 2700 nM, 40 nM and 66 fold.
Taken in the same sequence, the figures for `C[C@@H]1CN(C(=O)c2ccc(CCC(=O)NO)cc2)C[C@H](C)N1Cc1ccccc1` [Compound 824, 3-(4-((3R,5S)-4-benzyl-3,5-dimethylpiperazine-1-carbonyl)phenyl)-N-hydroxypropanamide] were 4100 nM, 180 nM and 22 fold.
Take `C[C@@H]1CN(Cc2ccc(C(=O)NO)cc2)C[C@H](C)N1Cc1ccc(-c2ccoc2)cc1` [Compound 309, 4-(((3R,5S)-4-(4-(furan-3-yl)benzyl)-3,5-dimethylpiperazin-1-yl)methyl)-N-hydroxybenzamide]: the IC50 at human recombinant HDAC1 turned out to be 1600 nM; on human recombinant HDAC6 it was 73 nM. Also, the “HDAC6 selectivity (fold)” value on human recombinant HDAC6 is 21 fold.
Taken in the same sequence, the figures for `C[C@@H]1CN(C(=O)c2ccccc2-c2ccoc2)C[C@H](C)N1Cc1ccc(C(=O)NO)cc1` [Compound 277, 4-(((2S,6R)-4-(2-(furan-3-yl)benzoyl)-2,6-dimethylpiperazin-1-yl)methyl)-N-hydroxybenzamide] were 10400 nM, 455 nM and 23 fold.
As for `C[C@@H]1CN(Cc2ccc(C(=O)NO)cc2)C[C@H](C)N1Cc1cc(F)ccc1F` [Compound 212, 4-(((3R,5S)-4-(2,5-difluorobenzyl)-3,5-dimethylpiperazin-1-yl)methyl)-N-hydroxybenzamide], the IC50 on human recombinant HDAC1 is more than 10000 nM. Besides, at human recombinant HDAC6, the “HDAC6 selectivity (fold)” value is given as more than 28 fold and the IC50 worked out at 358 nM.
For the molecule `C[C@@H]1CN(C(=O)c2ccccc2-c2ccco2)C[C@H](C)N1Cc1ccc(C(=O)NO)cc1` [Compound 276, 4-(((2S,6R)-4-(2-(furan-2-yl)benzoyl)-2,6-dimethylpiperazin-1-yl)methyl)-N-hydroxybenzamide], the half-maximal inhibitory concentration (IC50) on human recombinant HDAC1 came out at 12300 nM; at human recombinant HDAC6 it was 337 nM. For the same molecule, on human recombinant HDAC6, the “HDAC6 selectivity (fold)” value was determined as 36 fold.
For `C[C@@H]1CN(C(=O)Cc2cccc(C3=CCC(C)(C)CC3)c2)C[C@H](C)N1Cc1ccc(C(=O)NO)cc1` [Compound 253, 4-(((2S,6R)-4-(2-(4′,4′-dimethyl-2′,3′,4′,5′-tetrahydro-[1,1′-biphenyl]-3-yl)acetyl)-2,6-dimethylpiperazin-1-yl)methyl)-N-hydroxybenzamide] the same measures were 22600 nM, 1540 nM and 15 fold.
For `COc1cccc(NC(=O)N2C[C@@H](C)N(Cc3ccc(C(=O)NO)cc3)[C@@H](C)C2)c1` [Compound 164, (3R,5S)-4-(4-(hydroxycarbamoyl)benzyl)-N-(3-methoxyphenyl)-3,5-dimethylpiperazine-1-carboxamide], the IC50 at human recombinant HDAC1 worked out at 500 nM; on human recombinant HDAC6 it was 135 nM. The “HDAC6 selectivity (fold)” value on human recombinant HDAC6 came out at 4 fold.
For `C[C@@H]1CN(C(=O)c2ccccc2C2=CCC(C)(C)CC2)C[C@H](C)N1Cc1ccc(C(=O)NO)cc1` [Compound 280, 4-(((2S,6R)-4-(4′,4′-dimethyl-2′,3′,4′,5′-tetrahydro-[1,1′-biphenyl]-2-carbonyl)-2,6-dimethylpiperazin-1-yl)methyl)-N-hydroxybenzamide] the same measures were 17700 nM, 388 nM and 46 fold.
Regarding `C[C@@H]1CN(Cc2ccc(C(=O)NO)cc2)C[C@H](C)N1C(=O)c1ccc(-c2ccco2)cc1` [Compound 340, 4-(((3R,5S)-4-(4-(furan-2-yl)benzoyl)-3,5-dimethylpiperazin-1-yl)methyl)-N-hydroxybenzamide], on human recombinant HDAC1, the IC50 worked out at 1600 nM. Further, at human recombinant HDAC6, the “HDAC6 selectivity (fold)” value is given as 3 fold and the IC50 is 606 nM.
Taken in the same sequence, the figures for `C[C@@H]1CN(Cc2ccc(C(=O)NO)cc2)C[C@H](C)N1C(=O)c1cc[nH]n1` [Compound 403, 4-(((3R,5S)-3,5-dimethyl-4-(1H-pyrazole-3-carbonyl)piperazin-1-yl)methyl)-N-hydroxybenzamide] were 3200 nM, 53 fold and 61 nM.
